Test results from ChEMBL document CHEMBL1201862, “PubChem BioAssay data set” (2004).
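Method: 48-hour compound exposure of cells in 96-well plates, five concentrations, linear interpolation of endpoints. Abbreviation: GI50, concentration required for 50% inhibition of growth.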 Activity calls are given as the source filed them. No stated cut-off is given here; in the data, active = GI50 up to about 1.1 µM and inactive = higher.

Legend:
Experiment in all cases: inhibition of tumour cell growth, NCI panel, 48 h
NCI-H522 = system: NCI-H522
SN12C = system: SN12C
PC-3 = system: PC-3
K562 = system: K562
MOLT-4 = system: MOLT-4
HOP-92 = system: HOP-92
T47D = system: T47D
U-251 = system: U-251
SF-295 = system: SF-295
LOX IMVI = system: LOX IMVI
DU-145 = system: DU-145
HCT-15 = system: HCT-15
MCF7 = system: MCF7
HOP-62 = system: HOP-62
HCC 2998 = system: HCC 2998
SF-268 = system: SF-268
HT-29 = system: HT-29
A549 = system: A549
RXF 393 = system: RXF 393
TK-10 = system: TK-10
SK-OV-3 = system: SK-OV-3
MDA-MB-231 = system: MDA-MB-231
HL-60 = system: HL-60
UACC-257 = system: UACC-257
OVCAR-8 = system: OVCAR-8
NCI-H460 = system: NCI-H460
OVCAR-4 = system: OVCAR-4
SNB-75 = system: SNB-75
EKVX = system: EKVX
A498 = system: A498
M14 = system: M14
NCI-H23 = system: NCI-H23
SF-539 = system: SF-539
Malme-3M = system: Malme-3M
KM12 = system: KM12
BT-549 = system: BT-549
786-0 = system: 786-0
IGROV-1 = system: IGROV-1
SW-620 = system: SW-620
HCT-116 = system: HCT-116
NCI-H226 = system: NCI-H226
Hs-578T = system: Hs-578T
OVCAR-5 = system: OVCAR-5
MDA-N = system: MDA-N
CCRF-CEM = system: CCRF-CEM
UO-31 = system: UO-31
COLO 205 = system: COLO 205
MDA-MB-435 = system: MDA-MB-435
SR = system: SR
NCI/ADR-RES = system: NCI/ADR-RES
SNB-19 = system: SNB-19
SK-MEL-5 = system: SK-MEL-5
CAKI-1 = system: CAKI-1
SK-MEL-28 = system: SK-MEL-28
RPMI-8226 = system: RPMI-8226
OVCAR-3 = system: OVCAR-3
ACHN = system: ACHN
UACC-62 = system: UACC-62
SK-MEL-2 = system: SK-MEL-2

Structure (SMILES): COC(=O)c1ccc([N+](=O)[O-])c(O)c1
- GI50 (NCI-H522): > 100 µM (inactive)
- GI50 (SN12C): > 100 µM (inactive)
- GI50 (PC-3): > 100 µM (inactive)
- GI50 (K562): > 100 µM (inactive)
- GI50 (MOLT-4): > 100 µM (inactive)
- GI50 (HOP-92): > 100 µM (inactive)
- GI50 (T47D): > 100 µM (inactive)
- GI50 (U-251): > 100 µM (inactive)
- GI50 (SF-295): > 100 µM (inactive)
- GI50 (LOX IMVI): > 100 µM (inactive)
- GI50 (DU-145): > 100 µM (inactive)
- GI50 (HCT-15): > 100 µM
- GI50 (MCF7): > 100 µM (inactive)
- GI50 (HOP-62): > 100 µM (inactive)
- GI50 (HCC 2998): > 100 µM (inactive)
- GI50 (SF-268): > 100 µM (inactive)
- GI50 (HT-29): > 100 µM (inactive)
- GI50 (A549): > 100 µM (inactive)
- GI50 (RXF 393): > 100 µM (inactive)
- GI50 (TK-10): > 100 µM (inactive)
- GI50 (SK-OV-3): > 100 µM (inactive)
- GI50 (MDA-MB-231): > 100 µM (inactive)
- GI50 (HL-60): > 100 µM (inactive)
- GI50 (UACC-257): > 100 µM (inactive)
- GI50 (OVCAR-8): > 100 µM (inactive)
- GI50 (NCI-H460): > 100 µM (inactive)
- GI50 (OVCAR-4): 19.9 µM (inactive)
- GI50 (SNB-75): > 100 µM (inactive)
- GI50 (EKVX): > 100 µM (inactive)
- GI50 (A498): > 100 µM (inactive)
- GI50 (M14): > 100 µM (inactive)
- GI50 (NCI-H23): > 100 µM (inactive)
- GI50 (SF-539): > 100 µM (inactive)
- GI50 (Malme-3M): > 100 µM (inactive)
- GI50 (KM12): > 100 µM (inactive)
- GI50 (BT-549): > 100 µM (inactive)
- GI50 (786-0): > 100 µM (inactive)
- GI50 (IGROV-1): > 100 µM (inactive)
- GI50 (SW-620): > 100 µM (inactive)
- GI50 (HCT-116): > 100 µM (inactive)
- GI50 (NCI-H226): > 100 µM (inactive)
- GI50 (Hs-578T): > 100 µM (inactive)
- GI50 (OVCAR-5): > 100 µM (inactive)
- GI50 (MDA-N): > 100 µM (inactive)
- GI50 (CCRF-CEM): > 100 µM (inactive)
- GI50 (UO-31): > 100 µM (inactive)
- GI50 (COLO 205): > 100 µM (inactive)
- GI50 (MDA-MB-435): 8.55 µM (inactive)
- GI50 (SR): > 100 µM (inactive)
- GI50 (NCI/ADR-RES): > 100 µM (inactive)
- GI50 (SNB-19): > 100 µM (inactive)
- GI50 (SK-MEL-5): > 100 µM (inactive)
- GI50 (CAKI-1): > 100 µM (inactive)
- GI50 (SK-MEL-28): > 100 µM (inactive)
- GI50 (RPMI-8226): > 100 µM (inactive)
- GI50 (OVCAR-3): > 100 µM (inactive)
- GI50 (ACHN): > 100 µM (inactive)
- GI50 (UACC-62): > 100 µM (inactive)
- GI50 (SK-MEL-2): > 100 µM (inactive)
